The experiment deals with MCF-7 cancer cell line. Nature of the experiment: cells. Here is the method: MCF-7 breast cell line was employed in this study. The MCF-7 cell line was pre-incubated on a micro titer plate in this technique. Each test’s results are expressed as a percentage of the treated cells’ growth relative to the untreated control cells. […] 0.1 ml of the cell suspension (containing 5 × 10^6 cells/100 µL)and 0.1 ml of the test solution (6.25–100 µg in 1% DMSO such that the final concentration of DMSO in media was less than 1%) were added to the […] and incubated at 37°C for 72 h in a 5 percent CO2 incubator. The control wells included 1 percent DMSO and cell suspension, while the blank contained simply cell suspension. After 72 h, 20 µL of MTT were added and left in the CO2 incubator for 2 h before adding 100 µL of propanol. To protect the plate from light, it was wrapped in aluminum foil. The […] were then shaken for 10–25 min in a rotary shaker. The […] were processed on an ELISA reader for absorbance at 562 nm after 10–20 min.

Consider `COc1cccc2c1C(=O)c1c(O)c3c(c(O)c1C2=O)C[C@@](O)(C(=O)CO)C[C@@H]3O[C@H]1C[C@H](N)[C@H](O)[C@H](C)O1` [Doxorubicin], for which it took 40 nM to inhibit growth (Homo sapiens, MCF7) by half (GI50). The “TGI (total growth of inhibition)” value (MCF-7 cell line, MTT assay, mean ± SD of three separate experiments) amounted to 250 ± 230 nM.

The term GI50 denotes the concentration giving 50% growth inhibition. High values mean less potent growth inhibition, low ones more potent growth inhibition.

(Values after paper PMC8801607, “New Chitosan Polymer Scaffold Schiff Bases as Potential Cytotoxic Activity: Synthesis, Molecular Docking, and Physiochemical Characterization” (Frontiers in Chemistry, 2022).)
